Here are results for 9 compounds from patent US20140155376A1, “PYRROLOPYRAZINE KINASE INHIBITORS” (Hoffmann-La Roche Inc., priority 2010, published 2014).

Structures are written as SMILES. Like-named read-outs stand apart in the source and are kept apart here.

For this experiment, the target named is T1, JAK3 (recombinant human kinase domain; h-jak3(810-1124)) (Homo sapiens, UniProt P52333).
T1 construct: h-jak3(810- 1124)-sf9-c; made in house; host or cells: Sf9 insect cells
Put plainly: Determination of IC50 of Janus Kinase (JAK) inhibition: JAK3, radioactive end-point assay with 33P-ATP. Type of experiment: biochemical.

[1] abbreviates: JAK3 kinase domain, ATP 1.5 uM, peptide 50 uM, 20 minutes, room temperature, 10% DMSO, read-out: Ic50 h-jak3(810-1124)-sf9-c:no additive.

T1 sequence (P52333 810-1124): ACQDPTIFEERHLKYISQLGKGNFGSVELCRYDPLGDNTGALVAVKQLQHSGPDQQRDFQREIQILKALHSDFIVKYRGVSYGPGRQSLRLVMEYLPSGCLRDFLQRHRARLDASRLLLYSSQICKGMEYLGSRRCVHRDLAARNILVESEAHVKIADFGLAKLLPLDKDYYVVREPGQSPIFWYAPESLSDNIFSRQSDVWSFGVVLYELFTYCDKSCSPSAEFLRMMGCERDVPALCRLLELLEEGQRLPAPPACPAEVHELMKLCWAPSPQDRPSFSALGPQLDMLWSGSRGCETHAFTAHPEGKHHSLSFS

For the compound `CC[C@H](C)NC(=O)c1c[nH]c2ncc(Oc3ccc4c(c3)[C@H](NC(C)=O)CC4)nc12` [Example I-296, 2-((R)-3-Acetylamino-indan-5-yloxy)-5H-pyrrolo[2,3-b]pyrazine-7-carboxylic acid ((S)-sec-butyl)-amide], the IC50 under setting [1] amounted to 22.9 nM. Same read-out and setting: the figure for `CC(C)NC(=O)c1c[nH]c2ncc(Oc3ccc4c(c3)C(=O)CC4)nc12` [Example I-297, 2-(3-Oxo-indan-5-yloxy)-5H-pyrrolo[2,3-b]pyrazine-7-carboxylic acid isopropylamide] is 573 nM. The same measure, in the same setting: the figure for `CC(=O)N[C@@H]1CCc2ccc(Oc3cnc4[nH]cc(C(=O)NC(C)C#N)c4n3)cc21` (stereo partly drawn) [Example I-298, 2-((R)-3-Acetylamino-indan-5-yloxy)-5H-pyrrolo[2,3-b]pyrazine-7-carboxylic acid (cyano-methyl-methyl)-amide] is 387 nM. With `CC(C)NC(=O)c1c[nH]c2ncc(Oc3ccc4c(c3)[C@H](NC(N)=O)CC4)nc12` [Example I-299, 2-((R)-3-Ureido-indan-5-yloxy)-5H-pyrrolo[2,3-b]pyrazine-7-carboxylic acid isopropylamide], the IC50 under setting [1] is 143 nM. `CC(=O)NC1Cc2ccc(Oc3cnc4[nH]cc(C(=O)NC(C)C)c4n3)cc2C1` (stereo not drawn) [Example I-300, 2-(2-Acetylamino-indan-5-yloxy)-5H-pyrrolo[2,3-b]pyrazine-7-carboxylic acid isopropylamide]: the IC50 under setting [1] is 199 nM. `CC(C)NC(=O)c1c[nH]c2ncc(Oc3ccc4c(c3)[C@H](NC=O)CC4)nc12` [Example I-301, 2-((R)-3-Formylamino-indan-5-yloxy)-5H-pyrrolo[2,3-b]pyrazine-7-carboxylic acid isopropylamide]: the IC50 under setting [1] amounted to 118 nM. For `CC(C)NC(=O)c1c[nH]c2ncc(Oc3ccc4c(c3)C=CC4)nc12` [Example I-302, 2-(1H-Inden-5-yloxy)-5H-pyrrolo[2,3-b]pyrazine-7-carboxylic acid isopropylamide], the IC50 was 157 nM. For the compound `CC(C)NC(=O)c1c[nH]c2ncc(Oc3ccc4c(c3)[C@H](O)CC4)nc12` [Example I-303, 2-((R)-3-Hydroxy-indan-5-yloxy)-5H-pyrrolo[2,3-b]pyrazine-7-carboxylic acid isopropylamide], under setting [1], the IC50 was determined as 140 nM. In the case of `CC(C)NC(=O)c1c[nH]c2ncc(Oc3ccc4c(c3)[C@@H](O)CC4)nc12` [Example I-304, 2-((S)-3-Hydroxy-indan-5-yloxy)-5H-pyrrolo[2,3-b]pyrazine-7-carboxylic acid isopropylamide], the IC50 under setting [1] stood at 155 nM.

The term IC50 denotes the concentration at which inhibition is half-maximal.
